# System: FSK-4 cells
# Assay: Assay (I): Glucose utilisation in a human epithelia cell line (FSK4 cells), D-(6-3H(N))-glucose
# Format: cell-based
# Conditions: 24 hours incubation, Hill equation, read-out: GlucosFSK4 EC50
# Procedure: Assay (I): Glucose Utilisation in a Human Epithelia Cell Line (FSK4 cells)
# The ^3H-proton will first be released in the TCA cyclus and transported to the respiratory chain where it will be incorporated into water. The water is thereafter separated from the D-(6-^3H(N))-glucose by evaporation.
# FSK-4 cells obtained from ATCC (Maryland, USA), are cultured in growth medium (McCoy's medium with the following addition 100 units/ml penicillin and streptomycin and 10% FCS (fetal calf serum)) at 37° C. and 5% CO2.
# The cells are then incubated for another 24 hours at 37° C. and 5% CO2.
# The half maximal concentration (EC50) and maximal efficacy (Emax) are calculated using the Hill equation in GraphPad Prism 3.0 (GraphPad software, Inc.). […] From the percentage increase in glucose utilisation the linear slope is calculated using the Michaelis-Menten equation.
row,SMILES,EC50 [nM]
1,"CC(C)(C)c1cc(/C=C(\C#N)S(=O)(=O)c2ccccn2)cc(C(C)(C)C)c1O [Example 3, (E)-3-(3,5-Di-tert!-butyl-4-hydroxy-phenyl)-2-(pyridine-2-sulfonyl)-acrylonitrile]",9000
2,"CC1COCC(C)N1C(=O)c1ccc(S(=O)(=O)/C(C#N)=C/c2cc(C(C)(C)C)c(O)c(C(C)(C)C)c2)cc1 (stereo not shown) [Example 27, 3-(3,5-Di-tert-butyl-4-hydroxy-phenyl)-2-[4-(3,5-dimethyl-morpholine-4-carbonyl)-benzenesulfonyl]-acrylonitrile]",3500
3,"Cn1ccnc1S(=O)(=O)/C(C#N)=C/c1cc(C(C)(C)C)c(O)c(C(C)(C)C)c1 [Example 6, (E)-3-(3,5-Di-tert-butyl-4-hydroxy-phenyl)-2-(1-methyl-1H-imidazole-2-sulfonyl)-acrylonitrile]",8400
4,CN(C)C(=O)c1ccc(S(=O)(=O)/C(C#N)=C/c2cc(C(C)(C)C)c(O)c(C(C)(C)C)c2)cc1 [Example 14],2300
5,"CC(C)(C)c1cc(/C=C(\C#N)S(=O)(=O)c2ccc([N+](=O)[O-])cc2)cc(C(C)(C)C)c1O [Example 9, (E)-3-(3,5-Di-tert-butyl-4-hydroxy-phenyl)-2-(4-nitro-benzenesulfonyl)-acrylonitrile]",1400
6,"CC1CN(C(=O)c2ccc(S(=O)(=O)/C(C#N)=C/c3cc(C(C)(C)C)c(O)c(C(C)(C)C)c3)cc2)CC(C)O1 (stereo not shown) [Example 18, (E)-3-(3,5-Di-tert-butyl-4-hydroxy-phenyl)-2-[4-(2,6-dimethyl-morpholine-4-carbonyl)-benzenesulfonyl]-acrylonitrile]",1700
7,CC(C)(C)c1cc(/C=C(\C#N)S(=O)(=O)/C(C#N)=C/c2cc(C(C)(C)C)c(O)c(C(C)(C)C)c2)cc(C(C)(C)C)c1O [Example 22],400
8,COCCN(CCOC)C(=O)c1ccc(S(=O)(=O)/C(C#N)=C/c2cc(C(C)(C)C)c(O)c(C(C)(C)C)c2)cc1 [Example 13],4000
9,CC(C)(C)c1cc(/C=C(\C#N)S(=O)(=O)c2ccc(C(=O)NCCO)cc2)cc(C(C)(C)C)c1O [Example 17],7400
10,"CC(C)CO/C=C/c1ccc(S(=O)(=O)/C(C#N)=C/c2cc(C(C)(C)C)c(O)c(C(C)(C)C)c2)cc1 [Example 52, 3-(3,5-Di-tert-butyl-4-hydroxy-phenyl)-2-[4-(2-isobutoxy-vinyl)-benzenesulfonyl]-acrylonitrile]",1000
11,"N#C/C(=C\c1ccc(O)c([N+](=O)[O-])c1)S(=O)(=O)c1ccc(Cl)cc1 [Example 4, (E)-2-(4-Chloro-benzenesulfonyl)-3-(4-hydroxy-3-nitro-phenyl)-acrylonitrile]",> 10000
12,"CC(C)(C)c1cc(/C=C(\C#N)S(=O)(=O)Cc2ccc(Cl)cc2)cc(C(C)(C)C)c1O [Example 24, (E)-2-(4-Chloro-phenylmethanesulfonyl)-3-(3,5-di-tert-butyl-4-hydroxy-phenyl)-acrylonitrile]",700
13,"CC(C)(C)c1cc(/C=C(\C#N)S(=O)(=O)c2ccc(OC(F)(F)F)cc2)cc(C(C)(C)C)c1O [Example 11, (E)-3-(3,5-Di-tert-butyl-4-hydroxy-phenyl)-2-(4-trifluoromethoxy-benzenesulfonyl)-acrylonitrile]",2200
14,CC(O)CN(CC(C)O)C(=O)c1ccc(S(=O)(=O)/C(C#N)=C/c2cc(C(C)(C)C)c(O)c(C(C)(C)C)c2)cc1 (stereo not shown) [Example 15],10000
15,"C/C(=C(/C#N)S(=O)(=O)c1ccc(Cl)cc1)c1cc(C(C)(C)C)c(O)c(C(C)(C)C)c1 [Example 7, (E/Z)-2-(4-Chloro-benzenesulfonyl)-3-(3,5-di-tert-butyl-4-hydroxy-phenyl)-but-2-enenitrile]",10000
16,"CC(C)(C)c1cc(/C=C(\C#N)S(=O)(=O)c2ccc(Cl)cc2)cc([N+](=O)[O-])c1O [Example 12, (E)-3-(3-tert-Butyl-4-hydroxy-5-nitro-phenyl)-2-(4-chloro-benzenesulfonyl)-acrylonitrile]",6000
17,"CC(C)(C)c1cc(/C=C(\C#N)S(=O)(=O)c2ccc(N)cc2)cc(C(C)(C)C)c1O [Example 20, (E)-2-(4-Amino-benzenesulfonyl)-3-(3,5-di-tert-butyl-4-hydroxy-phenyl)-acrylonitrile]",2800
18,"CN1CCN(C(=O)c2ccc(S(=O)(=O)/C(C#N)=C/c3cc(C(C)(C)C)c(O)c(C(C)(C)C)c3)cc2)CC1 [Example 16, (E)-3-(3,5-Di-tert-butyl-4-hydroxy-phenyl)-2-[4-(4-methyl-piperazine-1-carbonyl)-benzenesulfonyl]-acrylonitrile]",3200
19,"CC(C)(C)c1cc(/C=C(\C#N)S(=O)(=O)c2cccs2)cc(C(C)(C)C)c1O [Example 23, (E)-3-(3,5-Di-tert-butyl-4-hydroxy-phenyl)-2-(thiophene-2-sulfonyl)-acrylonitrile]",1200
20,CC(C)(C)c1cc(/C=C(\C#N)S(=O)(=O)c2ccc(C(=O)N(CCO)CCO)cc2)cc(C(C)(C)C)c1O [Example 26],3700
21,"CC(C)(C)c1ccc(S(=O)(=O)/C(C#N)=C/c2cc(C(C)(C)C)c(O)c(C(C)(C)C)c2)cc1 [Example 29, 2-(4-tert-Butyl-benzenesulfonyl)-3-(3,5-di-tert-butyl-4-hydroxy-phenyl)-acrylonitrile]",2900
22,"CC(C)(C)c1cc(/C=C(\C#N)S(=O)(=O)c2ccc(C(=O)N3CCOCC3)cc2)cc(C(C)(C)C)c1O [Example 19, (E)-3-(3,5-Di-tert-butyl-4-hydroxy-phenyl)-2-[4-(morpholine-4-carbonyl)-benzenesulfonyl]-acrylonitrile]",5100

# The next lines start with the values.
row,EC50 [nM],SMILES
1,700,"CC(C)(C)c1cc(/C=C(\C#N)S(=O)(=O)c2ccc(S(C)(=O)=O)cc2)cc(C(C)(C)C)c1O [Example 38, 3-(3,5-Di-tert-butyl-4-hydroxy-phenyl)-2-(4-methanesulfonyl-benzenesulfonyl)-acrylonitrile]"
2,1000,"CC(C)(C)c1cc(/C=C(\C#N)S(=O)(=O)c2cccc3ccccc23)cc(C(C)(C)C)c1O [Example 30, 3-(3,5-Di-tert-butyl-4-hydroxy-phenyl)-2-(naphthalene-1-sulfonyl)-acrylonitrile]"
3,900,"CC(C)(C)c1cc(/C=C(\C#N)S(=O)(=O)c2ccc(/C=C/c3ccccc3)cc2)cc(C(C)(C)C)c1O [Example 51, 3-(3,5-Di-tert-butyl-4-hydroxy-phenyl)-2-(4-styryl-benzenesulfonyl)-acrylonitrile]"
4,2200,"CC(C)(C)c1cc(/C=C(\C#N)S(=O)(=O)c2ccc(C3CC=CO3)cc2)cc(C(C)(C)C)c1O (stereo not shown) [Example 49, 3-(3,5-Di-tert-butyl-4-hydroxy-phenyl)-2-[4-(2,3-dihydro-furan-2-yl)-benzenesulfonyl]-acrylonitrile]"
5,3300,"CC(C)(C)c1cc(C=C(C#N)S(=O)(=O)c2cc(C(C)(C)C)c(O)c(C(C)(C)C)c2)cc(C(C)(C)C)c1O [Example 35, 2-(3,5-Di-tert-butyl-4-hydroxy-benzenesulfonyl)-3-(3,5-di-tert-butyl-4-hydroxy-phenyl)-acrylonitrile]"
6,600,"CC(C)(C)c1cc(/C=C(\C#N)S(=O)(=O)c2ccccc2OC(F)(F)F)cc(C(C)(C)C)c1O [Example 40, 3-(3,5-Di-tert-butyl-4-hydroxy-phenyl)-2-(2-trifluoromethoxy-benzenesulfonyl)-acrylonitrile]"
7,1000,"COc1ccc(S(=O)(=O)/C(C#N)=C/c2cc(C(C)(C)C)c(O)c(C(C)(C)C)c2)cc1 [Example 46, 3-(3,5-Di-tert-butyl-4-hydroxy-phenyl)-2-(4-methoxy-benzenesulfonyl)-acrylonitrile]"
8,3000,"CC(C)(C)c1cc(/C=C(\C#N)S(=O)(=O)c2ccccc2C(=O)N2CCOCC2)cc(C(C)(C)C)c1O [Example 44, 3-(3,5-Di-tert-butyl-4-hydroxy-phenyl)-2-[2-(morpholine-4-carbonyl)-benzenesulfonyl]-acrylonitrile]"
9,800,"COc1cccc(S(=O)(=O)/C(C#N)=C/c2cc(C(C)(C)C)c(O)c(C(C)(C)C)c2)c1 [Example 47, 3-(3,5-Di-tert-butyl-4-hydroxy-phenyl)-2-(3-methoxy-benzenesulfonyl)-acrylonitrile]"
10,9000,CC(C)(C)c1cc(/C=C(\C#N)S(=O)(=O)c2ccccc2C(=O)O)cc(C(C)(C)C)c1O [Example 42]
11,1100,"Cc1ccc(S(=O)(=O)/C(C#N)=C/c2cc(C(C)(C)C)c(O)c(C(C)(C)C)c2)cc1 [Example 33, 3-(3,5-Di-tert-butyl-4-hydroxy-phenyl)-2-(toluene-4-sulfonyl)-acrylonitrile]"
12,1500,"COc1ccc(S(=O)(=O)/C(C#N)=C/c2cc(C(C)(C)C)c(O)c(C(C)(C)C)c2)cc1OC [Example 48, 3-(3,5-Di-tert-butyl-4-hydroxy-phenyl)-2-(3,4-dimethoxy-benzenesulfonyl)-acrylonitrile]"
13,3000,"CC(C)(C)c1cc(/C=C(\C#N)S(=O)(=O)c2cccc(C(=O)N3CCOCC3)c2)cc(C(C)(C)C)c1O [Example 45, 3-(3,5-Di-tert-butyl-4-hydroxy-phenyl)-2-[3-(morpholine-4-carbonyl)-benzenesulfonyl]-acrylonitrile]"
14,2000,"CC(C)(C)c1cc(/C=C(\C#N)S(=O)(=O)Cc2ccco2)cc(C(C)(C)C)c1O [Example 31, 3-(3,5-Di-tert-butyl-4-hydroxy-phenyl)-2-(furan-2-ylmethanesulfonyl)-acrylonitrile]"
15,500,"CC(C)(C)c1cc(/C=C(\C#N)S(=O)(=O)c2cccc(OC(F)(F)F)c2)cc(C(C)(C)C)c1O [Example 39, 3-(3,5-Di-tert-butyl-4-hydroxy-phenyl)-2-(3-trifluoromethoxy-benzenesulfonyl)-acrylonitrile]"

# From patent US20060128662A1, “Novel compounds for treatment of obesity” (Novo Nordisk A/S, priority 2003, published 2006)
